# Like-named read-outs stand apart in the source and are kept apart here.
# Key:
# [1] = target: panel of more than 300 wild-type and mutant kinases (313 kinase panel) (Homo sapiens, UniProt P51617); assay: Kinase profiling in a biochemical assay panel (mobility shift assays and ELISA), %-inhibition at 1 μM; selectivity entropy
# [2] = target: T1, panel of more than 300 wild-type and mutant kinases (313 kinase panel) (Homo sapiens, UniProt P00540); assay: as above
# T1 sequence (P00540 1-346): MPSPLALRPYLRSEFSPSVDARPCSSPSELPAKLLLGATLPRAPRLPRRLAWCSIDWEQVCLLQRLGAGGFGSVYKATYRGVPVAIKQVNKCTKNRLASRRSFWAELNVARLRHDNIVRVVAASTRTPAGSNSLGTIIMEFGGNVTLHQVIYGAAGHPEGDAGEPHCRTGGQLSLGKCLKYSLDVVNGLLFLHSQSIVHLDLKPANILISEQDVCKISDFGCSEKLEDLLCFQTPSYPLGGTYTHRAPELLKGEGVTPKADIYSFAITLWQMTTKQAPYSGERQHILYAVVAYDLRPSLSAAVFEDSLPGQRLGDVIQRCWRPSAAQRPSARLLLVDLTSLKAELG
# [3] = target: panel of more than 300 wild-type and mutant kinases (313 kinase panel) (Homo sapiens, UniProt P51451); assay: as above
# [4] = target: panel of more than 300 wild-type and mutant kinases (313 kinase panel) (Homo sapiens, UniProt P15056); assay: as above
# [5] = target: panel of more than 300 wild-type and mutant kinases (313 kinase panel) (Homo sapiens, UniProt P35968); assay: as above
# [6] = target: panel of more than 300 wild-type and mutant kinases (313 kinase panel) (Homo sapiens, UniProt P00519); assay: as above
# [7] = system: forty-four human cancer cell lines; assay: Cell proliferation assay (ATPlite, 72 hours) in the 44 cell line Oncolines panel; assay type: cell-based; details: Homo sapiens
# [8] = target: panel of more than 300 wild-type and mutant kinases (313 kinase panel) (Homo sapiens, UniProt P42684); assay: Kinase profiling in a biochemical assay panel (mobility shift assays and ELISA), %-inhibition at 1 μM; selectivity entropy; details: kinase ARG; 1 μM compound
# [9] = target: panel of more than 300 wild-type and mutant kinases (313 kinase panel) (Homo sapiens, UniProt P11362, V561M); assay: as above; details: kinase FGFR1(V561M); compound at 1 μM
# [10] = target: panel of more than 300 wild-type and mutant kinases (313 kinase panel) (Homo sapiens, UniProt P07947, T348I); assay: as above; details: kinase YES(T348I); compound at 1 μM
# [11] = 4-4 cell, read-out: cell panel IC50, J82
# [12] = 4-4 cell, read-out: cell panel IC50, PA-1
# [13] = 4-4 cell, read-out: cell panel IC50, SJCRH30
# [14] = 4-4 cell, read-out: cell panel IC50, SR
# [15] = 769-P, read-out: cell panel IC50, 769-P
# [16] = 786-0, read-out: cell panel IC50, 786-0
# [17] = A 172, read-out: cell panel IC50, A-172
# [18] = A204, read-out: cell panel IC50, A-204
# [19] = A498, read-out: cell panel IC50, A-498
# [20] = A-375, read-out: cell panel IC50, A375
# [21] = ACHN, read-out: cell panel IC50, ACHN
# [22] = AN3-CA, read-out: cell panel IC50, AN3 CA
# [23] = AU565, read-out: cell panel IC50, AU-565
# [24] = BT-20, read-out: cell panel IC50, BT-20
# [25] = BXPC-3, read-out: cell panel IC50, BxPC-3
# [26] = C-33-A, read-out: cell panel IC50, C-33 A
# [27] = CAL-27, read-out: cell panel IC50, CAL 27
# [28] = CCRF-CEM, read-out: cell panel IC50, CCRF-CEM
# [29] = DLD-1, read-out: cell panel IC50, DLD-1
# [30] = FaDu, read-out: cell panel IC50, FaDu
# [31] = HCT-15, read-out: cell panel IC50, HCT-15
# [32] = HCT-116, read-out: cell panel IC50, HCT-116
# [33] = Hs-578T, read-out: cell panel IC50, Hs 578T
# [34] = Jurkat E6.1, read-out: cell panel IC50, Jurkat E6.1
# [35] = K562, read-out: cell panel IC50, K-562
# [36] = LS174T, read-out: cell panel IC50, LS 174T
# [37] = LoVo, read-out: cell panel IC50, LoVo
# [38] = MG-63, read-out: cell panel IC50, MG-63
# [39] = MOLT-4, read-out: cell panel IC50, MOLT-4
# [40] = MeWo, read-out: cell panel IC50, MeWo
# [41] = NCI-H82, read-out: cell panel IC50, NCI-H82
# [42] = NCI-H460, read-out: cell panel IC50, NCI-H460
# [43] = OVCAR-3, read-out: cell panel IC50, OVCAR-3
# [44] = RPMI-7951, read-out: cell panel IC50, RPMI-7951
# [45] = SHP77, read-out: cell panel IC50, SHP-77
# [46] = SK-N-AS, read-out: cell panel IC50, SK-N-AS
# [47] = SW48, read-out: cell panel IC50, SW48
# [48] = SW480, read-out: cell panel IC50, SW480
# [49] = SW-620, read-out: cell panel IC50, SW620
# [50] = U2OS, read-out: cell panel IC50, U-2 OS
# [51] = U-87 MG, 72 h, read-out: IC50 in cell proliferation assay (table S5 cellpanel data)
# [52] = A549, read-out: cell panel IC50, A-549
# [53] = A-427, read-out: cell panel IC50, A-427
# [54] = BT-549, read-out: cell panel IC50, BT-549
smiles,measurement,setting,value
C#Cc1cccc(Nc2ncnc3cc(OCCOC)c(OCCOC)cc23)c1 [erlotinib],%-inhibition of IRAK1,[1]; 1 µM,-1.65%
same,%-inhibition of MOS,[2]; 1 µM,3.64%
same,"%-inhibition, BLK",[3]; 1 µM,31%
same,"%-inhibition, BRAF",[4]; 1 µM,14%
same,%-inhibition of KDR,[5]; 1 µM,74%
same,"%-inhibition, ABL",[6]; 1 µM,64%
same,IC50,[7]; [11],4.54 µM
same,IC50,[7]; [12],4.07 µM
same,IC50,[7]; [13],> 31.6 µM
same,IC50,[7]; [14],4.23 µM
same,IC50,[7]; [15],20.2 µM
same,IC50,[7]; [16],6.13 µM
same,IC50,[7]; [17],> 31.6 µM
same,IC50,[7]; [18],5.16 µM
same,IC50,[7]; [19],4.97 µM
same,IC50,[7]; [20],5.05 µM
same,IC50,[7]; [21],1.37 µM
same,IC50,[7]; [22],4.29 µM
same,IC50,[7]; [23],2.74 µM
same,IC50,[7]; [24],> 31.6 µM
same,IC50,[7]; [25],4.21 µM
same,IC50,[7]; [26],0.865 µM
same,IC50,[7]; [27],0.256 µM
same,IC50,[7]; [28],> 31.6 µM
same,IC50,[7]; [29],3.87 µM
same,IC50,[7]; [30],1.16 µM
same,IC50,[7]; [31],6.31 µM
same,IC50,[7]; [32],8.12 µM
same,IC50,[7]; [33],7.12 µM
same,IC50,[7]; [34],22.6 µM
same,IC50,[7]; [35],7.05 µM
same,IC50,[7]; [36],3.27 µM
same,IC50,[7]; [37],2.24 µM
same,IC50,[7]; [38],13.3 µM
same,IC50,[7]; [39],6.34 µM
same,IC50,[7]; [40],9.02 µM
same,IC50,[7]; [41],20.1 µM
same,IC50,[7]; [42],5.53 µM
same,IC50,[7]; [43],5.46 µM
same,IC50,[7]; [44],> 31.6 µM
same,IC50,[7]; [45],> 31.6 µM
same,IC50,[7]; [46],5.84 µM
same,IC50,[7]; [47],> 31.6 µM
same,IC50,[7]; [48],> 31.6 µM
same,IC50,[7]; [49],6.41 µM
same,IC50,[7]; [50],> 31.6 µM
same,IC50,[7]; [51],> 31.6 µM
CS(=O)(=O)CCNCc1ccc(-c2ccc3ncnc(Nc4ccc(OCc5cccc(F)c5)c(Cl)c4)c3c2)o1 [lapatinib],%-inhibition of IRAK1,"[1]; kinase IRAK1, compound at 1 μM",3%
same,%-inhibition of MOS,"[2]; kinase MOS, 1 μM",4.31%
same,"%-inhibition, BLK","[3]; kinase BLK, 1 μM compound",24%
same,"%-inhibition, ARG",[8],11%
same,"%-inhibition, ABL","[6]; kinase ABL, 1 μM compound",17%
same,IC50,[7]; [11],15.5 µM
same,IC50,[7]; [12],12.4 µM
same,IC50,[7]; [13],12.3 µM
same,IC50,[7]; [14],7.6 µM
same,IC50,[7]; [15],8.8 µM
same,IC50,[7]; [16],11.5 µM
same,IC50,[7]; [17],13.8 µM
same,IC50,[7]; [18],10.6 µM
same,IC50,[7]; [19],9.97 µM
same,IC50,[7]; [52],15.6 µM
same,IC50,[7]; [20],14.9 µM
same,IC50,[7]; [53],12.7 µM
same,IC50,[7]; [21],5.79 µM
same,IC50,[7]; [22],12 µM
same,IC50,[7]; [23],0.137 µM
same,IC50,[7]; [24],17.3 µM
same,IC50,[7]; [54],16.7 µM
same,IC50,[7]; [25],6.59 µM
same,IC50,[7]; [26],0.446 µM
same,IC50,[7]; [27],2.56 µM
same,IC50,[7]; [28],10.1 µM
same,IC50,[7]; [29],12.9 µM
same,IC50,[7]; [30],0.902 µM
same,IC50,[7]; [31],8.92 µM
same,IC50,[7]; [32],13.8 µM
same,IC50,[7]; [33],14.6 µM
same,IC50,[7]; [34],7.05 µM
same,IC50,[7]; [35],14.2 µM
same,IC50,[7]; [36],7.07 µM
same,IC50,[7]; [37],9.08 µM
same,IC50,[7]; [38],12.3 µM
same,IC50,[7]; [39],8.79 µM
same,IC50,[7]; [40],14.5 µM
same,IC50,[7]; [41],11.7 µM
same,IC50,[7]; [42],16.2 µM
same,IC50,[7]; [43],> 31.6 µM
same,IC50,[7]; [44],13.7 µM
same,IC50,[7]; [45],14.1 µM
same,IC50,[7]; [46],12.7 µM
same,IC50,[7]; [47],22.8 µM
same,IC50,[7]; [48],13.2 µM
same,IC50,[7]; [49],21.1 µM
same,IC50,[7]; [50],12.9 µM
same,IC50,[7]; [51],10.5 µM
O=S(=O)(c1cccc2cnccc12)N1CCCNCC1 [fasudil],%-inhibition of IRAK1,"[1]; kinase IRAK1, compound at 1 μM",3.42%
same,%-inhibition of MOS,"[2]; kinase MOS, 1 μM",-24%
same,"%-inhibition, BLK","[3]; kinase BLK, 1 μM compound",-2.48%
same,%-inhibition of FGFR1(V561M),[9],2.35%
same,"%-inhibition, ARG",[8],-7%
same,"%-inhibition, BRAF","[4]; kinase BRAF, 1 μM compound",-3.28%
same,%-inhibition of KDR,"[5]; kinase KDR, compound at 1 μM",1.78%
same,"%-inhibition, ABL","[6]; kinase ABL, 1 μM compound",-8%
same,%-inhibition of YES(T348I),[10],6%
same,IC50,[7]; [11],> 31.6 µM
same,IC50,[7]; [12],> 31.6 µM
same,IC50,[7]; [13],> 31.6 µM
same,IC50,[7]; [14],14.6 µM
same,IC50,[7]; [15],> 31.6 µM
same,IC50,[7]; [16],> 31.6 µM
same,IC50,[7]; [17],> 31.6 µM
same,IC50,[7]; [18],> 31.6 µM
same,IC50,[7]; [19],> 31.6 µM
same,IC50,[7]; [52],> 31.6 µM
same,IC50,[7]; [20],19.7 µM
same,IC50,[7]; [53],> 31.6 µM
same,IC50,[7]; [21],> 31.6 µM
same,IC50,[7]; [22],29.8 µM
same,IC50,[7]; [23],> 31.6 µM
same,IC50,[7]; [24],> 31.6 µM
same,IC50,[7]; [54],> 31.6 µM
same,IC50,[7]; [25],> 31.6 µM
same,IC50,[7]; [26],> 31.6 µM
same,IC50,[7]; [27],> 31.6 µM
same,IC50,[7]; [28],> 31.6 µM
same,IC50,[7]; [29],> 31.6 µM
same,IC50,[7]; [30],> 31.6 µM
same,IC50,[7]; [31],> 31.6 µM
same,IC50,[7]; [32],> 31.6 µM
same,IC50,[7]; [33],> 31.6 µM
same,IC50,[7]; [34],> 31.6 µM
same,IC50,[7]; [35],> 31.6 µM
same,IC50,[7]; [36],> 31.6 µM
same,IC50,[7]; [37],> 31.6 µM
same,IC50,[7]; [38],> 31.6 µM
same,IC50,[7]; [39],> 31.6 µM
same,IC50,[7]; [40],> 31.6 µM
same,IC50,[7]; [41],> 31.6 µM
same,IC50,[7]; [42],> 31.6 µM
same,IC50,[7]; [43],> 31.6 µM
same,IC50,[7]; [44],> 31.6 µM
same,IC50,[7]; [45],> 31.6 µM
same,IC50,[7]; [46],> 31.6 µM
same,IC50,[7]; [47],> 31.6 µM
same,IC50,[7]; [48],> 31.6 µM
same,IC50,[7]; [49],> 31.6 µM
same,IC50,[7]; [50],> 31.6 µM
same,IC50,[7]; [51],> 31.6 µM

# Source: paper PMC3961306, “Comparison of the Cancer Gene Targeting and Biochemical Selectivities of All Targeted Kinase Inhibitors Approved for Clinical Use” (PLoS ONE, 2014)
